# Assay: Example 2: phase 3 trial, enavogliflozin 0.3 mg vs dapagliflozin 10 mg once a day for 24 weeks added to metformin in patients with type 2 diabetes (same efficacy, exploratory and safety endpoints)
# Format: in vivo, human
# Conditions: for Non-inferiority (UCI < 0.35%): HbA1c change at week 24, vs dapagliflozin
# Description: Subjects who met the inclusion/exclusion criteria were administered a placebo of the clinical trial drug under single-blind (subject blinding) conditions during a 2-week run-in period while continuing to receive metformin. […] The randomized subjects were administered two tablets of the clinical trial drug for each administration group once a day, and then visited the institution at weeks 6, 12, 18, and 24 during the 24-week administration period to conduct efficacy and safety evaluations.
# • 1. Change in HbA1c at week 24 after administration of clinical trial drug compared to Visit 2 (randomization)
# • 1. Change in HbA1c at each time point of weeks 6, 12, and 18 after administration of clinical trial drug compared to Visit 2 (randomization) • 2. Change in FPG at each time point of weeks 6, 12, 18, and 24 after administration of clinical trial drug compared to Visit 2 (randomization) • 3. Proportion of subjects achieving HbA1c<7% at each time point of weeks 6, 12, 18, and 24 after administration of clinical trial drug • 4. Proportion of subjects achieving HbA1c<6.5% at each time point of weeks 6, 12, 18, and 24 after administration of clinical trial drug • 5. Proportion of subjects achieving therapeutic response (HbA1c change (HbA1c at Visit 2-HbA1c at each evaluation time point)>0.5% or HbA1c<7% at each evaluation time point compared to Visit 2 (randomization)) at each time point of weeks 6, 12, 18 and 24 after administration of clinical trial drug
# • 1. Change in fasting c-peptide at each time point of weeks 6, 12, 18, and 24 after administration of clinical trial drug compared to Visit 2 (randomization) • 2. Change in body weight at each time point of weeks 6, 12, 18, and 24 after administration of clinical trial drug compared to Visit 2 (randomization) • 3. Change in fasting lipid concentration (total cholesterol, LDL-C, HDL-C, and triglycerides) at each time point of weeks 6, 12, 18, and 24 after administration of clinical trial drug compared to Visit 2 (randomization) • 4. Changes in systolic or diastolic blood pressure at each time point of weeks 6, 12, 18, and 24 after administration of clinical trial drug compared to Visit 2 (randomization) • 5. Changes in β-cell function and insulin resistance measured by HOMA-β and HOMA-IR at each time point of weeks 6, 12, 18, and 24 after administration of clinical trial drug compared to Visit 2 (randomization) • 6. Changes in renal function-related indicators (UACR, UGCR) measured by UACR at each time point of weeks 6, 12, 18, and 24 after administration of clinical trial drug compared to Visit 2 (randomization) • 7. Changes in obesity-related indicators (adiponectin, leptin) at each time point of weeks 6, 12, 18, and 24 after administration of clinical trial drug compared to Visit 2 (randomization)
# [1] = Baseline, modified per-protocol set 1, enavogliflozin 0.3 mg, dapagliflozin 10 mg
# [2] = Baseline, per-protocol set, enavogliflozin 0.3 mg, dapagliflozin 10 mg
# [3] = Week 6, PPS, enavogliflozin minus dapagliflozin
smiles,measurement,setting,value
"OC[C@H]1O[C@@H](c2cc(Cc3ccc(C4CC4)cc3)c(Cl)c3c2CCO3)[C@H](O)[C@@H](O)[C@@H]1O [Enavogliflozin, (2S,3R,4R,5S,6R)-2-(7-chloro-6 (4-cyclopropylbenzyl)-2,3-dihydrobenzofuran-4-yl)-6-(hydroxymethyl)tetrahydro-2H-pyran-3,4,5-triol]",Incidence of serious adverse drug reactions,24 weeks,1 case
same,Incidence of adverse events or serious adverse events between the test group and the control,"24 weeks, vs dapagliflozin",no statistically significant differences
same,"Adiponectin, Mean (SD)","Baseline, PPS",6.96 µg/mL
same,"Adiponectin, Median","Baseline, PPS",5.99 µg/mL
same,"HOMA-IR, Mean (SD)","Baseline, PPS",3.45
same,"HOMA-IR, Median","Baseline, PPS",2.67
same,"HOMA-β, Mean (SD)","Baseline, PPS",45.53
same,"HOMA-β, Median","Baseline, PPS",35.00
same,"Leptin, Mean (SD)","Baseline, PPS",12.21 ng/mL
same,"Leptin, Median","Baseline, PPS",8.00 ng/mL
same,"UACR, Mean (SD)","Baseline, PPS",38190 mg/kg
same,"UACR, Median","Baseline, PPS",10.10 g/kg
same,"UGCR, Mean (SD)","Baseline, PPS",1.54 mg/mg
same,"UGCR, Median","Baseline, PPS",0.14 mg/mg
same,"HDL-C, Mean (SD)","Baseline, mPPS1",50.94(10.85) mg/dL
same,"HDL-C, Median","Baseline, mPPS1",50.00 mg/dL
same,"LDL-C, Mean (SD)","Baseline, mPPS1",86.52(30.53) mg/dL
same,"LDL-C, Median","Baseline, mPPS1",83.00 mg/dL
same,"Triglycerides, Mean (SD)","Baseline, mPPS1",122.10(85.91) mg/dL
same,"Triglycerides, Median","Baseline, mPPS1",101.00 mg/dL
same,"Diastolic blood pressure, Mean (SD)","Baseline, mPPS2",77.04 mmHg
same,"Diastolic blood pressure, Median","Baseline, mPPS2",77.00 mmHg
same,"Systolic blood pressure, Mean (SD)","Baseline, mPPS2",129.72(13.64) mmHg
same,"Systolic blood pressure, Median","Baseline, mPPS2",130.00 mmHg
same,"fasting Total cholesterol, Mean (SD)",[1],151.43(32.91) mg/dL
same,"fasting Total cholesterol, Median",[1],150.00 mg/dL
same,"FPG, Mean (SD)",[2],145.35 mg/dL
same,"FPG, Median",[2],147.00 mg/dL
same,"HbA1c, Mean (SD)",[2],7.75%
same,"HbA1c, Median",[2],7.49%
same,"body weight, Mean (SD)",[2],70.17(11.06) kg
same,"body weight, Median",[2],67.40 kg
same,"fasting c-peptide, Mean (SD)",[2],0.72(0.29) ng/mL
same,"fasting c-peptide, Median",[2],0.66 ng/mL
same,Non-inferiority (UCI < 0.35%),,Yes
same,Non-inferiority (UCI < 0.35%),listed as enavogliflozin,not inferior
same,"Adiponectin change from baseline, ANCOVA LS mean (SE)","Week 6, PPS",0.92 µg/mL
same,"Adiponectin change from baseline, Mean (SD)","Week 6, PPS",0.84 µg/mL
same,"Adiponectin change from baseline, Median","Week 6, PPS",0.58 µg/mL
same,"Adiponectin, Mean (SD)","Week 6, PPS",7.8 µg/mL
same,"Adiponectin, Median","Week 6, PPS",6.87 µg/mL
same,"HOMA-IR change from baseline, ANCOVA LS mean (SE)","Week 6, PPS",−1.47
same,"HOMA-IR change from baseline, Mean (SD)","Week 6, PPS",−1.35
same,"HOMA-IR change from baseline, Median","Week 6, PPS",−0.91
same,"HOMA-IR, Mean (SD)","Week 6, PPS",2.10
same,"HOMA-IR, Median","Week 6, PPS",1.72
same,"HOMA-β change from baseline, ANCOVA LS mean (SE)","Week 6, PPS",7.22
same,"HOMA-β change from baseline, Mean (SD)","Week 6, PPS",5.87
same,"HOMA-β change from baseline, Median","Week 6, PPS",8.10
same,"HOMA-β, Mean (SD)","Week 6, PPS",51.39
same,"HOMA-β, Median","Week 6, PPS",43.00
same,"Leptin change from baseline, ANCOVA LS mean (SE)","Week 6, PPS",-2.43 ng/mL
same,"Leptin change from baseline, Mean (SD)","Week 6, PPS",-2.54 ng/mL
same,"Leptin change from baseline, Median","Week 6, PPS",-1.36 ng/mL
same,"Leptin, Mean (SD)","Week 6, PPS",9.66 ng/mL
same,"Leptin, Median","Week 6, PPS",5.99 ng/mL
same,"UACR change from baseline, ANCOVA LS mean (SE)","Week 6, PPS",-12.75 g/kg
same,"UACR change from baseline, Mean (SD)","Week 6, PPS",-11440 mg/kg
same,"UACR change from baseline, Median","Week 6, PPS",0.00 g/kg
same,"UACR, Mean (SD)","Week 6, PPS",26760 mg/kg
same,"UACR, Median","Week 6, PPS",11.40 g/kg
same,"UGCR change from baseline, ANCOVA LS mean (SE)","Week 6, PPS",65.72 mg/mg
same,"UGCR change from baseline, Mean (SD)","Week 6, PPS",63.13 mg/mg
same,"UGCR change from baseline, Median","Week 6, PPS",57.91 mg/mg
same,"UGCR, Mean (SD)","Week 6, PPS",64.66 mg/mg
same,"UGCR, Median","Week 6, PPS",58.45 mg/mg
same,"HOMA-IR change from baseline, LS mean difference",[3],−0.16
same,"HOMA-β change from baseline, LS mean difference",[3],9.01
same,"UACR change from baseline, LS mean difference",[3],-20.88 g/kg
